Reference: ChEMBL document CHEMBL3352078, “Repurposing human PDE4 inhibitors for neglected tropical diseases: design, synthesis and evaluation of cilomilast analogues as Trypanosoma brucei PDEB1 inhibitors” (Bioorg Med Chem Lett, 2014)

What was measured:
[1] = target: T1, Class 1 phosphodiesterase PDEB1 (Trypanosoma brucei, UniProt Q8WQX9); assay: Inhibition of Trypanosoma brucei recombinant PDEB1 pre-incubated for 5 mins prior to substrate addition
T1 sequence (Q8WQX9 whole entry): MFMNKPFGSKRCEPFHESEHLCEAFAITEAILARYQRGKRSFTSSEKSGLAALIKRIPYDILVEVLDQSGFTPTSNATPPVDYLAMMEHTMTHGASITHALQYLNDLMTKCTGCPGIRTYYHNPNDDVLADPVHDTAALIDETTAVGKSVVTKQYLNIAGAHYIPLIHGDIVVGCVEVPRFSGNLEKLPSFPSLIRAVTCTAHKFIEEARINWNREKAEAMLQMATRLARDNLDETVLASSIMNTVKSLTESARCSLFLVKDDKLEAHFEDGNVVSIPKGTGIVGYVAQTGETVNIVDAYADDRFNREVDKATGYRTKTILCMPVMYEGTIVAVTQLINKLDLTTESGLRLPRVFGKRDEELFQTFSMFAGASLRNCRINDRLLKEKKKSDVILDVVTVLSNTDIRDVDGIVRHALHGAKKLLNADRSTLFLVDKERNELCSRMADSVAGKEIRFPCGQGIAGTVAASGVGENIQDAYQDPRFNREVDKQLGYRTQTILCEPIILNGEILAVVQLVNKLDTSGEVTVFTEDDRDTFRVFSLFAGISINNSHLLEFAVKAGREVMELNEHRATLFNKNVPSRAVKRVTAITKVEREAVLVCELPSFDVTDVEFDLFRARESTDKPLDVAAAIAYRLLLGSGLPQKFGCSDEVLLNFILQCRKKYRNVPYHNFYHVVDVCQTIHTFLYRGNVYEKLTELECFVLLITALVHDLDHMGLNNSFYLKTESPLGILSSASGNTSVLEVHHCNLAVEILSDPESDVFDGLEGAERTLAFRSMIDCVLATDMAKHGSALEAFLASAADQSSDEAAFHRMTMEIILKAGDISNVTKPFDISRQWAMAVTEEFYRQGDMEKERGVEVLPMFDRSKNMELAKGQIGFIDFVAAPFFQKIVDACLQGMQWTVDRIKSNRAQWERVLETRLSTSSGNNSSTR

[2] = target: T2, Class 1 phosphodiesterase PDEB1 (Trypanosoma brucei) (UniProt Q8WQX9); assay: Inhibition of Trypanosoma brucei recombinant PDEB1 at 10 uM pre-incubated for 5 mins prior to substrate addition
T2 sequence (whole entry): T1 sequence (Q8WQX9 whole entry)

[3] = Cytotoxicity against mouse NIH/3T3 cells by Alamar blue cell viability assay; format: cell-based, NIH3T3; conditions: read-out: TC50 (the source's name)
Trypanosoma brucei = assay: Antiparasitic activity against Trypanosoma brucei after 22 to 24 hrs by Alamar blue cell viability assay; format: functional, organism-based
[4] = Inhibition of Trypanosoma brucei PDEB2

SMILES: COc1ccc([C@]2(C#N)CC[C@@H](C(=O)O)CC2)cc1OCCCCOc1ccc(F)cc1
- IC50 [1]: 9.2 µM
- inhibition [2]: 79%

SMILES: COc1ccc([C@]2(C#N)CC[C@@H](C(=O)O)CC2)cc1OCc1ccccn1
- inhibition [2]: 33%

SMILES: COc1ccc([C@]2(C#N)CC[C@@H](C(=O)O)CC2)cc1OCc1ccccc1
- IC50 [1]: 12 µM
- inhibition [2]: 77%

SMILES: COc1ccc([C@]2(C#N)CC[C@@H](C(=O)O)CC2)cc1OCCCCOc1ccc(C)cc1
- IC50 [1]: 4.9 µM
- inhibition [2]: 74%

SMILES: COc1ccc([C@]2(C#N)CC[C@H](C(=O)O)CC2)cc1OCc1ccccc1
- inhibition [2]: 20%

SMILES: COc1ccc([C@]2(C#N)CC[C@H](C(=O)O)CC2)cc1OC1CCCC1
- inhibition [2]: 9.3%

SMILES: COc1ccc([C@]2(C#N)CC[C@@H](C(=O)O)CC2)cc1OC1CCCC1 [CILOMILAST]
- CC50 [3]: > 50 µM
- EC50 (Trypanosoma brucei): > 50 µM
- IC50 [1]: 16 µM

SMILES: COc1ccc([C@]2(C#N)CC[C@@H](C(=O)O)CC2)cc1OCCCOc1ccccc1
- IC50 [1]: 11 µM
- inhibition [2]: 66%

SMILES: COc1ccc([C@]2(C#N)CC[C@@H](C(=O)O)CC2)cc1OCc1ccncc1
- inhibition [2]: 11%

SMILES: COc1ccc([C@]2(C#N)CC[C@@H](C(=O)O)CC2)cc1OCCCCOc1ccc(C#N)cc1
- IC50 [1]: 3.6 µM
- inhibition [2]: 87%

SMILES: COc1ccc(C2(C#N)CCN(CC(=O)O)CC2)cc1OC1CCCC1
- inhibition [2]: 11%

SMILES: COc1ccc([C@]2(C#N)CC[C@@H](C(=O)OC)CC2)cc1OCc1ccccc1
- inhibition [2]: 40%

SMILES: COc1ccc([C@]2(C#N)CC[C@@H](C(=O)OC)CC2)cc1OC1CCCC1
- inhibition [2]: 31%

SMILES: COc1ccc(C2(C#N)CCNCC2)cc1OC1CCCC1
- inhibition [2]: 19%

SMILES: COc1ccc([C@]2(C#N)CC[C@@H](C(=O)O)CC2)cc1OCCCCOc1ccc(-c2nn[nH]n2)cc1
- IC50 [1]: 7.9 µM
- inhibition [2]: 69%

SMILES: COc1ccc(OCCCCOc2cc([C@]3(C#N)CC[C@@H](C(=O)O)CC3)ccc2OC)cc1
- IC50 [1]: 3.5 µM
- inhibition [2]: 79%

SMILES: COc1ccc([C@]2(C#N)CC[C@H](C(=O)OC)CC2)cc1OCc1ccccc1
- inhibition [2]: 28%

SMILES: COc1ccc([C@]2(C#N)CC[C@@H](C(=O)O)CC2)cc1OCCCCOc1ccccc1
- IC50 [4]: 2.1 µM
- CC50 [3]: > 50 µM
- EC50 (Trypanosoma brucei): 26 µM
- inhibition [2]: 96%

SMILES: COc1ccc([C@]2(C#N)CC[C@H](C(=O)OC)CC2)cc1OC1CCCC1
- inhibition [2]: 26%

SMILES: COc1ccc([C@]2(C#N)CC[C@@H](C(=O)O)CC2)cc1OCCCCCOc1ccccc1
- IC50 [1]: 9.8 µM
- inhibition [2]: 54%

SMILES: CCOC(=O)CN1CCC(C#N)(c2ccc(OC)c(OC3CCCC3)c2)CC1
- inhibition [2]: 6%
